Test system: P388
Test: Cytotoxicity against mouse P388 cells
Format: functional, cell-based

Row | Compound | IC50
1 | Cc1cc(O)c(C)c(O)c1C=O | 126 µM
2 | CC(=O)Cc1cc(O)c(C)c(O)c1C=O | 19.7 µM
3 | CC(C)C[C@@H]1NC(=O)[C@H](CC(C)C)NC(=O)[C@@H](C)NC(=O)[C@H](C(C)C)NC(=O)[C@@H](CC(C)C)NC1=O [CHRYSOSPORIDE] | 33.4 µM
4 | C/C=C/[C@@H]1OC(=O)C=C[C@@H]1O [PHOMALACTONE] | 40.9 µM
